The structures appear in SMILES notation.

The target of this experiment is T1, RORα (Homo sapiens, UniProt P35398).
T1 sequence (P35398 272-510 limits assumed): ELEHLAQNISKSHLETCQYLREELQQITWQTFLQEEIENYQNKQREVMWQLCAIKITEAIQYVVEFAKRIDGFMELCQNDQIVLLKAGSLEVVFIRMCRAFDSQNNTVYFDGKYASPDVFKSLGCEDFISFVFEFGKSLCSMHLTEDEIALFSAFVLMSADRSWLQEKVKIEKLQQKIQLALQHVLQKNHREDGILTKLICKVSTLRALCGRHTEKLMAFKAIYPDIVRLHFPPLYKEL
Kind of experiment: TR-FRET coactivator recruitment assay on RORα. The format is biochemical. The note with it: read-out: RORα: cofactor recruitment IC50; Figure 3B. In general terms: TR-FRET usually uses a lanthanide donor and a delayed reading to cut background.

As for `CC(C)CCC[C@@H](C)[C@H]1CC[C@H]2[C@@H]3CC=C4C[C@@H](OS(=O)(=O)O)CC[C@]4(C)[C@H]3CC[C@]12C` [Chol-SO4, sulfated cholesterol], the IC50 stood at 190 ± 50 nM.

Usually IC50 stands for the point on the concentration scale where inhibition reaches its midpoint.

The record behind these values is PMC8023582 (ACS Chemical Biology, 2021).
